Laboratory results as given in the NIST ThermoML archive (doi:10.1016/j.fluid.2008.07.018).
± gives the expanded uncertainty stated by the source.

Experiments:
[1] = Liquid; for mass density: 298.15 K, 101.33 kPa
[2] = refractive index (Na D-line) (dimensionless); settings: 298.15 K; 101.33 kPa; Liquid; Standard Abbe refractometry

Structure (SMILES) | mass density [1] | vapor or sublimation pressure ([1]; 472.55 K) | refractive index [2] | vapor or sublimation pressure ([1]; 455.25 K) | vapor or sublimation pressure ([1]; 427.05 K) | vapor or sublimation pressure ([1]; 402.85 K) | vapor or sublimation pressure ([1]; 424.35 K)
CC(=O)c1ccccc1 [acetophenone] | 1023.8 ± 3 kg/m3 | 95.5 ± 4 kPa | 1.5342 ± 0.0007 | – | – | – | –
Nc1ccccc1 [aniline] | 1017.6 ± 3 kg/m3 | – | 1.5836 ± 0.0007 | 95.5 ± 4 kPa | – | – | –
CC(=O)N(C)C [N,N-dimethylethanamide] | 936.3 ± 2.7 kg/m3 | – | 1.4357 ± 0.0007 | – | – | – | –
Brc1ccccc1 [bromobenzene] | 1488.1 ± 4.8 kg/m3 | – | 1.5571 ± 0.0007 | – | 95.5 ± 4 kPa | – | –
Clc1ccccc1 [chlorobenzene] | 1106.3 ± 3.3 kg/m3 | – | 1.5218 ± 0.0007 | – | – | 95.5 ± 4 kPa | –
CN(C)C=O [dimethylformamide] | 943.9 ± 1.6 kg/m3 | – | 1.4219 ± 0.0007 | – | – | – | 95.5 ± 3.3 kPa
